{"source": "patent US20230248772A1", "about": "“PRODUCTS AND METHODS USING A PLATELET-DERIVED HEMOSTATIC AGENT FOR CONTROLLING BLEEDING AND IMPROVING HEALING” (Cellphire, Inc., priority 2015, published 2023)", "key": {"[1]": {"tested_on": "platelet rich plasma", "assay": "T-TAS flow system occlusion of platelet rich plasma (collagen and tissue factor coated channel)", "assay_type": "cell-based", "settings": "untreated 18.43", "source_text": "(§1) Evaluation by T-TAS® using an AR chip. AR chips are characterized by a single channel containing collagen and tissue factor; they can be used to analyze clotting and platelet function."}, "[2]": {"tested_on": "NOD/SCID mice", "assay": "Tail-snip bleed model in clopidogrel-treated mice", "assay_type": "in vivo, mouse", "settings": "~3 times the clinical dose of clopidogrel for 5 days; untreated 9 minutes", "description": "The mouse was treated with clopidogrel for 5 days. The mouse was anesthetized, the tail end was snipped off followed by thrombosomes being immediately administered. The time from tail snip to tail stop bleeding was recorded by visual inspection.\nNOD/SCID mice were treated with ~ 3 times the clinical dose of clopidogrel for 5 days then assessed in the tail-snip bleed model. The bleed time (min) was extended to 17.8 minutes with clopidogrel treatment verses untreated at 9 minutes (data not shown)."}, "[3]": {"tested_on": "thrombin", "assay": "Thrombin generation in plasma", "assay_type": "biochemical, human", "settings": "PPP from patients taking baby aspirin daily; normal range about 66-166 nM; FIG. 18", "description": "Reagent Preparation. For thrombin generation, the following materials were used from manufacturers, as follows: FluCa Kit (Diagnostica Stago, Cat. No. 86197), Thrombin calibrator (Diagnostica Stago, Cat. No. 86197), PRP Reagent (Diagnostica Stago, Cat. No. 86196), OCTOPLAS®, a solvent detergent treated human pooled plasma (Octapharma, Cat. No. 8-68209-952-04). All frozen reagents were thawed in a 37° C. water bath before use. All reagents were rehydrated with sterile water using the volume printed on the reagent labels. Approximately 2 min after rehydration, the reagents were mixed by inverting vials 5 times, so no chunks or powder left; vortexing was not used. […]\nSample Analysis - Plate preparation and testing. For experiments containing thrombosomes, a thrombosomes dilution series was generated (dilutions of 194.4 K, 64.8 K, 21.6 K, and 7.2 K per µL were typically used; cell counts are determined by flow cytometry) for each the experimental thrombosomes and the reference thrombosomes. […] The plate was then incubated in the Fluoroskan Ascent 96 well fluorescent plate reader (Thrombinoscope) (ThermoFisher Scientific) for 10 minutes. […] The plate fluorescence was monitored for 75 minutes at an interval of 20 seconds and a temperature of 40-41° C.\nThe effect of aspirin treatment (concentration) on thrombin generation was measured. […]"}, "[4]": {"tested_on": "platelets", "assay": "Transmission light aggregometry, collagen-induced platelet aggregation in PRP", "assay_type": "cell-based", "settings": "collagen 10 µg/mL, all concentrations tested, FIG. 1", "source_text": "Plasma samples with platelet or thrombosomes or combination of both are loaded into cuvettes and placed into the aggregometry chambers. The chambers warm the sample and provide constant stirring. The initiation of aggregation can be done by multiple types of […] agents not limited to thrombin, ADP, collagen and any agent known to stimulate platelet aggregation. The samples can also have been taken as ex-vivo, or in-vitro supplemented with inhibitors. The instrument begins the assay by first recording the light transmission previous to stimulation for 2 minutes. The stimulant of interest is then introduced by the technician and the change in light transmission is recorded over time. The increase in light transmission corresponds to increase in platelet aggregation.\nThe aggregation of platelets (in platelet rich plasma) was evaluated using transmission light aggregometry. […] (FIG. 1)."}, "[5]": {"tested_on": "whole blood", "assay": "T-TAS AR chip occlusion of whole blood under shear", "assay_type": "cell-based", "source_text": "as §1"}, "[6]": {"settings": "cited from earlier work"}}, "note": "Positions of bridges follow the written chain, without caps; N, C: chain ends. Non-standard residues stand in square brackets, D forms with d. Residues, ends and D or L forms follow the SMILES beside them. hArg = N=C(N)NCCCC[C@H](N)C(=O)O; Mpa = O=C(O)CCS"}
{"compound": "CCCCS(=O)(=O)N[C@@H](Cc1ccc(OCCCCC2CCNCC2)cc1)C(=O)O", "note": "[tirofiban]", "values": [{"measurement": "occlusion time of platelet rich plasma", "setting": "[1]; 100 ng/mL tirofiban, FIGS. 9A, 9B", "value": "no occlusion"}]}
{"compound": "COC(=O)[C@H](c1ccccc1Cl)N1CCc2sccc2C1", "note": "[clopidogrel]", "values": [{"measurement": "bleed time", "setting": "[2]", "value": 17.8, "unit": "min"}]}
{"compound": "CC(=O)Oc1ccccc1C(=O)O", "note": "[aspirin]", "values": [{"measurement": "peak thrombin of aspirin plasma in absence of thrombosomes", "setting": "[3]", "value": "about 45 nM"}]}
{"compound": "N=C(N)NCCCC[C@@H]1NC(=O)CCSSC[C@@H](C(N)=O)NC(=O)[C@@H]2CCCN2C(=O)[C@H](Cc2c[nH]c3ccccc23)NC(=O)[C@H](CC(=O)O)NC(=O)CNC1=O", "note": "[eptifibatide] ([Mpa][hArg]GDWPC-NH2; disulfide 1-7)", "values": [{"measurement": "collagen-induced platelet aggregation", "setting": "[4]", "value": "completely inhibited"}, {"measurement": "occlusion time of whole blood on T-TAS AR Chip", "setting": "[5]; 6 µM eptifibatide, untreated whole blood occluded at 8 minutes, FIG. 2", "value": 16, "unit": "min"}, {"measurement": "effect on occlusion time of whole blood on T-TAS AR Chip", "setting": "[5]; eptifibatide at various concentrations", "value": "dose-dependent manner"}, {"measurement": "occlusion time of platelet rich plasma", "setting": "[1]; 9 µM eptifibatide, FIGS. 10A, 10B", "value": "over 30 minutes"}, {"measurement": "blood concentration", "setting": "[6]; IV 180 µg/kg bolus followed by 2 µg/kg/min continuous infusion, typical", "value": "1000 to 2000", "unit": "nM"}, {"measurement": "time for bleeding time to return to normal after drug stoppage", "setting": "[6]; generally", "value": "≤ 1", "unit": "h"}]}
